Records with an inconclusive call do not appear. Calls of active or inactive are those of the source.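 The calls were made as follows: active = fitted activation curve crossing 40% at a concentration no higher than the sample's top valid tested dose; inconclusive = flat fitted curve at 30% to 70% activation, or poor curve fit; inactive = signal decrease, flat curve within 30%, or the rest.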 A value given as a limit tells only on which side of the number the result lay.

For this assay, the system named is NIH3T3-HGL HSF-1 response element luciferase, 48 h. Briefly: sustained heat shock response element induction – cell-based, mouse, luciferase, cherry-pick, dose, confirmation (AID 602296).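 Also: test compounds applied by themselves with no MG132 co-treatment.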
In the case of `CCCCCNC(=O)C1CCC(Cn2c(=S)[nH]c3ccccc3c2=O)CC1` (stereo unspecified), the AC40 was > 26 µM (inactive).
For `COc1cc(SSc2cc(OC)cc([N+](=O)[O-])c2N)c(N)c([N+](=O)[O-])c1` the value was 17.9 µM; for `CCC1Oc2ccc(C)cc2N(Cc2cccc(C)c2)C1=O` (stereo unspecified), 13.1 µM; for `CC1=C(Sc2nc3ccccc3[nH]2)C(=O)NC(C)(C)C1`, > 26 µM (inactive).
`C/C(Cl)=C/Cc1c(C)[nH]c2ccc(C)cc2c1=O`: the AC40 is 11.2 µM.
Under `COC(=O)[C@@H](Cc1c[nH]c2ccccc12)NC(=O)c1ccc2c(c1)OCO2` stands 3.28 µM; under `C=CCn1c(=O)c2ccccc2n2c(SCC(=O)Nc3sc(C)c(CC)c3C(=O)OCC)nnc12`, > 26 µM (inactive).
Consider `Cc1cc(C)cc(OCC(O)CN2C(=O)NC(C)(C)C2=O)c1` (stereo unspecified), for which the AC40 was > 26 µM (inactive).
Under `O=c1[nH]c2ccccc2n1CCC1CCCCC1` stands 5.36 µM.
`COc1ccc(/C=C2/SC(=O)N(CCNC(=O)C3COc4ccccc4O3)C2=O)cc1` (stereo unspecified): the AC40 is 5.69 µM.
Under `COc1cc(/C=C(/C#N)C(=O)c2c(C)[nH]c3ccccc23)ccc1OCC#N` stands > 26 µM (inactive).
For `CC(=O)N=c1sccn1CC(=O)c1ccc([N+](=O)[O-])cc1` the value was > 26 µM (inactive); for `C/C(=C\C(=O)Nc1cscc1C)C(=O)O`, > 26 µM (inactive); for `Cc1ccc(O)c(CNc2nccs2)c1`, 24.5 µM.
Consider `CCOP(=O)(C(NC(=O)c1ccccc1Cl)=C(Cl)Cl)c1ccccc1` (stereo unspecified), for which the AC40 was > 26 µM (inactive).
Under `CNc1nc(SC(C)C(=O)Nc2ccc(Cl)c(Cl)c2)nc(N2CCOCC2)n1` (stereo unspecified) stands > 26 µM (inactive); under `O=C(Nc1ccccc1C(=O)OCC(=O)c1c[nH]c2ccccc12)c1ccco1`, > 26 µM (inactive).
For `O=C(N/N=C/c1ccc(-c2cccc([N+](=O)[O-])c2)o1)c1ccccc1O` the value was > 26 µM (inactive); for `CCc1nnc(N/N=C/c2ccccc2Cl)n1N`, 21.9 µM; for `N#C/C(C(=O)NCc1ccccc1)=C1/N=C(NC(=O)c2ccco2)c2ccccc21`, > 26 µM (inactive).
Take `O=[N+]([O-])c1ccc(S(=O)(=O)N2CCSC2c2ccco2)cc1` (stereo unspecified): the AC40 was > 26 µM (inactive).
Take `Cc1ccc(N2C(=O)CCC2(C#N)c2ccccc2)cc1` (stereo unspecified): the AC40 was > 26 µM (inactive).
`COc1cccc(Sc2ccccc2/C=N/NC(N)=O)c1`: the AC40 is > 26 µM (inactive).
Under `CCOc1ccc2nc(COC(=O)c3cccc([N+](=O)[O-])c3)c(C(C)=O)[n+]([O-])c2c1` stands > 26 µM (inactive).
Under `CCOC(=O)C1=NN(C(=O)c2ccccc2)C(O)(c2ccc(C)cc2)C1` (stereo unspecified) stands 8.91 µM; under `O=c1[nH][nH]c(-c2ccccc2O)c1C(C[N+](=O)[O-])c1ccccc1` (stereo unspecified), 16.9 µM.
Under `N#CC(C#N)=C1C=CC=CN1/C(=C\c1ccccc1)C(=O)c1cccs1` stands 12.3 µM; under `O=C(c1ccc[nH]c1=S)N1CCN(S(=O)(=O)c2ccc(Br)cc2Cl)CC1`, > 26 µM (inactive).
For `CCC1CCCCN1C(=O)COC(=O)c1cc2ccccc2cc1O` (stereo unspecified), the AC40 was > 26 µM (inactive).
For `CC(=O)NC(=O)NC1OC(=O)C(Cl)=C1Cl` (stereo unspecified) the value was > 26 µM (inactive); for `CN(C)CCCn1c(N)c(C#N)c2nc(C#N)c(C#N)nc21`, > 12 µM (inactive).
In the case of `CC1CC(C)(C)N(C(=O)NC2CCCCC2)c2ccccc21` (stereo unspecified), the AC40 was 12.9 µM.
For `CC[C@@]1(O)C(=O)OCc2c1cc1n(c2=O)Cc2cc3c(N)cccc3nc2-1` the value was 15.9 µM; for `NC(=O)Cc1ccc2c(c1)[nH]c1ccccc12`, > 26 µM (inactive).
For the molecule `C[C@@H]1C(NC(=O)c2ccccc2)CC2CC1C2(C)C` (stereo partly specified), the AC40 was > 26 µM (inactive).
Under `Cn1c(Cn2nnc3ccccc32)nnc1SCC(=O)c1ccccc1F` stands 20.6 µM; under `Cn1c(=O)oc2cc(S(=O)(=O)N3CCCCC3)ccc21`, > 26 µM (inactive).
For `O=C(Nc1ccc(Br)cn1)c1ccc([N+](=O)[O-])o1` the value was > 26 µM (inactive); for `CC1(C)CC(=O)C(C2C3=C(CC(C)(C)CC3=O)OC3=C2C(=O)CC(C)(C)C3)=C(O)C1`, > 26 µM (inactive); for `CCCn1c(SCC(=O)c2cc(OC)ccc2OC)nnc1C(C)C`, > 26 µM (inactive).
Under `Cc1ccc(-c2nn(-c3cc(Cl)ccc3[N+](=O)[O-])c(=O)c3ccccc23)cc1` stands > 26 µM (inactive); under `COc1ccc(C(=O)CC(=O)C(=O)Nc2cc(OC)c(OC)c(OC)c2)cc1`, > 26 µM (inactive); under `O=C(OCc1csc(-c2ccccc2)n1)c1cccs1`, 0.901 µM.
For `Cn1nnc2c[n+](CC(=O)c3ccc4ccccc4c3)cc(Br)c21`, the AC40 is > 26 µM (inactive).
Under `CCOC(=O)c1c(-c2ccc(C)cc2)cn2ccccc12` stands > 26 µM (inactive).
Under `O=C(CSCc1ccc(Br)cc1)N1CCCC1` stands 11.3 µM; under `CCOCCCNC(=S)Nc1ccc2nc(N3CCOCC3)cc(C)c2c1`, > 26 µM (inactive); under `N=c1sccn1CC(=O)Nc1cc(Cl)ccc1Oc1ccccc1`, > 26 µM (inactive).
For `Cn1c(C(=O)OC(C(=O)NC(C)(C)C)c2cccnc2)cc2sccc21` (stereo unspecified) the value was > 26 µM (inactive); for `CC(=O)Nc1cccc(-n2nnc(SCC(=O)Nc3ccc(F)c(Cl)c3)n2)c1`, > 26 µM (inactive); for `CC(Oc1ccc(F)cc1Br)c1nc2ccccc2c(=O)[nH]1` (stereo unspecified), 17.3 µM.
As for `CSc1c(C#N)c(N)nc2sc(C(=O)c3ccccc3)c(N)c12`, the AC40 was 5.48 µM.
`O=C1/C(=C/c2ccc([N+](=O)[O-])cc2)Oc2cc(O)ccc21`: the AC40 is > 26 µM (inactive).
Turning to `COC(=O)c1nnn(CC(=O)NC(=O)Nc2ccc(F)cc2)c1C(=O)OC`, the AC40 was > 26 µM (inactive).
For `O=C1c2cccc3c([N+](=O)[O-])ccc(c23)C(=O)N1O`, the AC40 was > 26 µM (inactive).
Turning to `COc1ccc2c(c1OC)C(=O)OC2Nc1nc(-c2ccccc2)cs1` (stereo unspecified), the AC40 is > 26 µM (inactive).
Under `CC1(C)Cc2c(C#N)c(N)n(-c3ccccc3)c(=S)c2CO1` stands > 26 µM (inactive).
Under `ClC(Cl)c1nnc(-c2ccccc2)c(-c2c[nH]c3ccccc23)n1` stands > 26 µM (inactive).
As for `Cc1ccnc(N2CCCC(C(=O)Nc3ccc(C)c(C)c3)C2)n1` (stereo unspecified), the AC40 was > 26 µM (inactive).
Turning to `COc1ccc(OCc2nnnn2-c2ccccc2)cc1`, the AC40 is 25.7 µM.
For `CCOC(=O)/C=C/C(=O)N1CCc2ccccc21` the value was > 26 µM (inactive); for `Cc1ccc2oc(C(=O)N3CCC(O)(c4cccc(C(F)(F)F)c4)CC3)c(C)c2c1`, 9.28 µM; for `CNC(=O)C1CC(=O)N(c2ccc(OCC(=O)N3CCCC3)cc2)C1` (stereo unspecified), > 26 µM (inactive).
As to `CC(=O)Nc1ccc(N/C=C/C(=O)C(C)(C)C)cc1`, the AC40 was > 26 µM (inactive).
For `Cc1nc2ccccc2nc(C)c1=NOCc1ccccc1Cl` the value was 3.97 µM; for `Cc1ccc(-c2c3c(=O)n(C)c(=O)n(C)c3cn2-n2cnnc2)cc1`, 15.1 µM; for `O=C(CSc1nnc(-c2c[nH]c3ccccc23)n1-c1ccc(F)cc1)NCc1ccco1`, 13.5 µM.
Under `COc1cc2c(cc1NC(=O)COC(=O)[C@@H](NS(=O)(=O)c1ccccc1)C(C)C)oc1ccccc12` stands > 26 µM (inactive); under `COC(=O)c1ccc(CSc2ncnc3c2oc2ccccc23)o1`, > 26 µM (inactive); under `Cc1ccc(C(=O)NNC(=O)c2ccccc2-n2cccc2)cc1`, > 26 µM (inactive).
For `CCOc1cc(/C=C2/SC(=S)N(CC3CCCO3)C2=O)ccc1O` (stereo unspecified) the value was > 26 µM (inactive); for `COc1cc(CC(=O)N(c2ccccc2)c2nc(C)cs2)cc(OC)c1OC`, > 26 µM (inactive).
For `C/C(=N\NC(=O)c1cccc(N/N=C(\C)c2cc(O)ccc2O)c1)c1cc(O)ccc1O`, the AC40 was > 12 µM (inactive).
For `CC1(C)CC(=O)C(C=Nc2cccnc2)=C(O)C1` the value was > 26 µM (inactive); for `Cc1nn(C(CC(=O)O)C(=O)O)c(C)c1Br` (stereo unspecified), > 26 µM (inactive); for `COc1cccc(/C=N/NC(=S)NC2CC3CC2C2C=CCC32)c1O` (stereo unspecified), > 26 µM (inactive).
For `CNc1nc(-c2ccccc2)cc(C)c1S(C)(=O)=O` the value was > 26 µM (inactive); for `Cc1cnn(-c2cc(N/N=C/c3cccc(F)c3)ncn2)c1`, 9.32 µM.
For `COC(=O)CC1C(=O)NCCN1C(=O)c1ccc(S(=O)(=O)N2CCOCC2)cc1` (stereo unspecified) the value was > 26 µM (inactive); for `CN(/C(=N\S(=O)(=O)c1ccccc1)c1ccccc1)c1ccc(O)cc1`, > 26 µM (inactive); for `CCC(=O)N1CCN(c2ccc(NC(=O)COc3ccc(C)cc3C)cc2)CC1`, > 26 µM (inactive).
Turning to `COc1ccc(-n2cnnc2SCC(=O)N(C)C2CCS(=O)(=O)C2)cc1` (stereo unspecified), the AC40 was > 26 µM (inactive).
As to `Fc1ccccc1-c1nc2nc3ccccc3nc2n1CC1CCCO1` (stereo unspecified), the AC40 is 21.8 µM.
Under `NC(=O)c1cc2cc(Br)ccc2oc1=NCc1ccccc1` stands > 26 µM (inactive); under `CCN(CC)C(=O)Oc1ccc(Br)cc1C(=O)Nc1ccc(F)cc1F`, > 26 µM (inactive); under `Cc1ccc(CNc2c(C=O)c(=O)[nH]c3ccccc23)cc1`, > 26 µM (inactive).
As to `CSc1ccc(/C=N\Nc2nncn2N)cc1`, the AC40 was > 26 µM (inactive).
As to `N#Cc1ccsc1NC(=O)CN1CCN(S(=O)(=O)c2ccc3ccccc3c2)CC1`, the AC40 was > 26 µM (inactive).
Regarding `CC(=O)Nc1nnc(SCC(=O)c2ccc(F)cc2)s1`, the AC40 was 17.4 µM.
For `C=CCN1C(=O)C(Cc2ccc(OCC)cc2)SC1=Nc1ccc(C(=O)O)cc1` (stereo unspecified), the AC40 was > 26 µM (inactive).
For `O=C(C1CCC(CNS(=O)(=O)c2cccc3nsnc23)CC1)N1CCN(c2ccccn2)CC1` (stereo unspecified) the value was > 26 µM (inactive).

These data come from PubChem BioAssay AID602296 (Broad Institute, 2012).
